Test systems include T-47D breast; OVCAR-5 ovarian; NCI-H460 lung; SF-295 CNS; HL-60(TB) leukemia; MDA-MB-231 breast; HCT-116 colon; OVCAR-4 ovarian; OVCAR-8 ovarian; HCC-2998 colon.
Holding throughout (assay): NCI anticancer screen, dose series, 48 h

Twelve compounds from PubChem BioAssay (NCI) can be followed below.

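Results reflect a 48-hour exposure of cells in 96-well plates to compound at five concentrations. Abbreviation: GI50, concentration required for 50% inhibition of growth. At the TGI there is no net growth.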

On to `CCS(=O)(=O)c1ccc(OC)c(Nc2ncc(-c3cccc(OC)c3)o2)c1`, for which the GI50 is 8.18 µM with T-47D breast; 9.03 µM in the experiment on OVCAR-5 ovarian; 11.9 µM in the experiment with NCI-H460 lung; 9.72 µM with SF-295 CNS; 16.4 µM in the experiment with HL-60(TB) leukemia; 8.54 µM in the experiment with MDA-MB-231 breast. The GI50 is 8.1 µM in the experiment on HCT-116 colon, 13.5 µM in the experiment on OVCAR-4 ovarian, 9.66 µM in the experiment with OVCAR-8 ovarian and 23 µM in the experiment on HCC-2998 colon. For the same compound, the TGI with T-47D breast, in the experiment on OVCAR-5 ovarian, with NCI-H460 lung, in the experiment with SF-295 CNS, in the experiment with HL-60(TB) leukemia and with MDA-MB-231 breast was above 25 µM throughout. Further, the TGI in the experiment with HCT-116 colon, in the experiment on OVCAR-4 ovarian, in the experiment on OVCAR-8 ovarian and in the experiment on HCC-2998 colon was above 25 µM each time.

Regarding `Fc1cc(F)c(COc2cc(Cn3cnc4c(Cl)nc(Cl)nc43)ccc2C23CC4CC(CC(C4)C2)C3)cc1F`, the GI50 in the experiment on T-47D breast is 16.7 µM; with OVCAR-5 ovarian, 19.9 µM; in the experiment with NCI-H460 lung it was 19.4 µM; in the experiment with SF-295 CNS it was 18 µM; with HL-60(TB) leukemia, 1.99 µM; in the experiment on MDA-MB-231 breast, 17.5 µM. Besides, the GI50 in the experiment on HCT-116 colon is 15.2 µM; in the experiment with OVCAR-4 ovarian it was 19.5 µM; in the experiment on OVCAR-8 ovarian, 18 µM; with HCC-2998 colon, 18.7 µM. Moreover, the TGI in the experiment on T-47D breast turned out to be 45.1 µM; in the experiment with OVCAR-5 ovarian, 37.4 µM; in the experiment with NCI-H460 lung it was 37.5 µM; in the experiment on SF-295 CNS, 34 µM; with HL-60(TB) leukemia it was 4.58 µM; in the experiment on MDA-MB-231 breast, 32.7 µM. The TGI in the experiment with HCT-116 colon worked out at 28.5 µM; with OVCAR-4 ovarian, 44 µM; with OVCAR-8 ovarian, 38.4 µM; in the experiment on HCC-2998 colon, 33.5 µM.

Consider `CCC#CC[C@H]1C/C=C2/C(=O)C=C[C@@H]2C/C=C\CCCC(=O)O1`, for which the GI50 in the experiment on T-47D breast was 1.35 µM; in the experiment with OVCAR-5 ovarian it was 1.74 µM; with NCI-H460 lung, 1.14 µM; in the experiment on SF-295 CNS, 1.43 µM; with HL-60(TB) leukemia, 1.07 µM; in the experiment on MDA-MB-231 breast, 1.85 µM. The GI50 with HCT-116 colon was 0.43 µM; in the experiment on OVCAR-4 ovarian, 1.5 µM; with OVCAR-8 ovarian, 0.783 µM; with HCC-2998 colon it was 0.991 µM. The TGI amounted to 10.2 µM in the experiment on T-47D breast; 6.92 µM in the experiment on OVCAR-5 ovarian; 3.65 µM in the experiment on NCI-H460 lung; 4.36 µM in the experiment on SF-295 CNS; 4.23 µM with HL-60(TB) leukemia; 9.28 µM in the experiment with MDA-MB-231 breast. Besides, the TGI with HCT-116 colon amounted to 2.61 µM; with OVCAR-4 ovarian, 7.94 µM; with OVCAR-8 ovarian, 9.71 µM; with HCC-2998 colon, 1.8 µM.

In the case of `NCCCC[C@@H]1NC(=O)[C@H]2CCCN2C(=O)[C@H](Cc2ccccc2)NC(=O)[C@H](Cc2ccccc2)CNC1=O`, the GI50 with T-47D breast, in the experiment with OVCAR-5 ovarian, in the experiment with NCI-H460 lung, in the experiment on SF-295 CNS, with HL-60(TB) leukemia and with MDA-MB-231 breast was above 100 µM each time. Also, the GI50 in the experiment on HCT-116 colon, with OVCAR-4 ovarian, in the experiment with OVCAR-8 ovarian and in the experiment on HCC-2998 colon was above 100 µM throughout. In addition, the TGI with T-47D breast, with OVCAR-5 ovarian, in the experiment on NCI-H460 lung, with SF-295 CNS, in the experiment with HL-60(TB) leukemia and with MDA-MB-231 breast was above 100 µM each time. Besides, the TGI in the experiment with HCT-116 colon, in the experiment on OVCAR-4 ovarian, with OVCAR-8 ovarian and in the experiment with HCC-2998 colon was above 100 µM in each case.

Turning to `Cc1cc(C)c(C(=O)CC(=O)c2cccnc2)c(C)c1`, the GI50 in the experiment on T-47D breast is 10.2 µM; in the experiment on OVCAR-5 ovarian, 9.84 µM; with NCI-H460 lung, 3.39 µM; with SF-295 CNS it was 2.78 µM; with HL-60(TB) leukemia, 8.59 µM; with MDA-MB-231 breast, 11.2 µM. For the same compound, the GI50 in the experiment with HCT-116 colon was 4.31 µM; with OVCAR-4 ovarian, 8.59 µM; in the experiment on OVCAR-8 ovarian, 4.58 µM; in the experiment on HCC-2998 colon it was 12.8 µM. Besides, the TGI was above 100 µM in the experiment on T-47D breast; above 100 µM in the experiment with OVCAR-5 ovarian; 82.9 µM in the experiment with NCI-H460 lung; 83.5 µM in the experiment on SF-295 CNS; 31.7 µM in the experiment on HL-60(TB) leukemia; above 100 µM with MDA-MB-231 breast. Moreover, the TGI in the experiment on HCT-116 colon, in the experiment on OVCAR-4 ovarian, in the experiment with OVCAR-8 ovarian and with HCC-2998 colon was above 100 µM in each case.

Take `Nc1ncc(-c2cnn(CCO)c2)c2scc(-c3ccc(NC(=O)Nc4cccc(F)c4)cc3)c12`: the GI50 in the experiment on T-47D breast was 1.32 µM; in the experiment with OVCAR-5 ovarian it was 0.375 µM; in the experiment with NCI-H460 lung it was below 0.0355 µM; in the experiment on SF-295 CNS, below 0.0373 µM; in the experiment with HL-60(TB) leukemia it was 0.499 µM; in the experiment with MDA-MB-231 breast, 1.14 µM. Moreover, the GI50 in the experiment on HCT-116 colon is 0.206 µM; in the experiment with OVCAR-4 ovarian it was 0.299 µM; in the experiment with OVCAR-8 ovarian, 0.253 µM; with HCC-2998 colon it was 1.39 µM. Besides, the TGI in the experiment with T-47D breast turned out to be 5.93 µM; in the experiment on OVCAR-5 ovarian it was 3 µM; with NCI-H460 lung, 4.21 µM; in the experiment with SF-295 CNS, 0.762 µM; in the experiment on HL-60(TB) leukemia it was 5.09 µM; in the experiment with MDA-MB-231 breast, 2.91 µM. The TGI in the experiment with HCT-116 colon was 3.18 µM; in the experiment on OVCAR-4 ovarian it was 11.4 µM; in the experiment with OVCAR-8 ovarian, 2.39 µM; in the experiment with HCC-2998 colon, 6.79 µM.

Take `COC(=O)Nc1nc2ccc(Oc3ccc(NC(=O)Nc4ccccc4)cc3)cc2[nH]1`: the GI50 in the experiment on T-47D breast is 0.131 µM; in the experiment with OVCAR-5 ovarian it was 1.06 µM; in the experiment with NCI-H460 lung, 0.129 µM; with SF-295 CNS, 0.121 µM; with HL-60(TB) leukemia it was 0.0654 µM; in the experiment on MDA-MB-231 breast it was 0.32 µM. In addition, the GI50 in the experiment with HCT-116 colon was 0.119 µM; in the experiment on OVCAR-4 ovarian, 0.207 µM; with OVCAR-8 ovarian, 0.545 µM; with HCC-2998 colon, 0.458 µM. Besides, the TGI was 21.7 µM with T-47D breast; above 14.4 µM in the experiment on OVCAR-5 ovarian; 2.71 µM in the experiment on NCI-H460 lung; 2.23 µM with SF-295 CNS; 0.295 µM in the experiment with HL-60(TB) leukemia; 10.3 µM in the experiment on MDA-MB-231 breast. Besides, the TGI in the experiment on HCT-116 colon is above 10.4 µM; with OVCAR-4 ovarian, 5.68 µM; with OVCAR-8 ovarian, 8.04 µM; with HCC-2998 colon, above 17.7 µM.

As for `COc1ccc2c(c1)C=C([N+](=O)[O-])C(C1OC(C)(C)OC1C1COC(C)(C)O1)O2` (stereo not given), the TGI in the experiment on T-47D breast was 26.6 µM; in the experiment on OVCAR-5 ovarian it was 20.7 µM; with NCI-H460 lung, 13.6 µM; in the experiment with SF-295 CNS, 22.2 µM; with HL-60(TB) leukemia it was 5.49 µM; in the experiment on MDA-MB-231 breast, 6.6 µM. Also, the TGI with HCT-116 colon was 4.04 µM; with OVCAR-4 ovarian, 21.3 µM; in the experiment with OVCAR-8 ovarian it was 11.4 µM; in the experiment on HCC-2998 colon, 27.7 µM.

Take `CCc1[nH]c(=O)nc(N)c1-c1ccc(N2CCCCC2)c([N+](=O)[O-])c1`: the TGI in the experiment with T-47D breast, with OVCAR-5 ovarian, in the experiment on NCI-H460 lung, in the experiment with SF-295 CNS, with HL-60(TB) leukemia and with MDA-MB-231 breast was above 100 µM in each case. For the same compound, the TGI in the experiment with HCT-116 colon, with OVCAR-4 ovarian, with OVCAR-8 ovarian and with HCC-2998 colon was above 100 µM in each case.

With `CC/C=C\C[C@@H]1C/C=C2/C(=O)C=C[C@H]2C/C=C\CCCC(=O)O1`, the GI50 is 1.6 µM in the experiment on T-47D breast; 1.51 µM in the experiment on OVCAR-5 ovarian; 2.67 µM in the experiment with NCI-H460 lung; 1.18 µM in the experiment with SF-295 CNS; 0.277 µM in the experiment with HL-60(TB) leukemia; 1.56 µM in the experiment on MDA-MB-231 breast. In addition, the GI50 in the experiment with HCT-116 colon is 0.133 µM; in the experiment on OVCAR-4 ovarian, 1.04 µM; in the experiment with OVCAR-8 ovarian, 0.342 µM; in the experiment with HCC-2998 colon it was 0.259 µM. For the same compound, the TGI in the experiment with T-47D breast was found to be 6.28 µM; in the experiment on OVCAR-5 ovarian it was 3.78 µM; with NCI-H460 lung, 7.45 µM; in the experiment on SF-295 CNS it was 2.73 µM; in the experiment on HL-60(TB) leukemia, 0.716 µM; in the experiment with MDA-MB-231 breast, 6.59 µM. In addition, the TGI in the experiment on HCT-116 colon came to 0.32 µM; in the experiment with OVCAR-4 ovarian, 2.38 µM; with OVCAR-8 ovarian, 2.37 µM; in the experiment with HCC-2998 colon it was 0.533 µM.

Regarding `CCOC(=O)Sc1ncnc2nc[nH]c12`, the GI50 is 0.799 µM in the experiment on T-47D breast; 4.49 µM with OVCAR-5 ovarian; 5.75 µM with NCI-H460 lung; 2.43 µM in the experiment on SF-295 CNS; 1.42 µM with HL-60(TB) leukemia; 3.88 µM in the experiment on MDA-MB-231 breast. Also, the GI50 is 2.31 µM in the experiment with HCT-116 colon, 0.491 µM with OVCAR-4 ovarian, 3.08 µM in the experiment with OVCAR-8 ovarian and 3.13 µM in the experiment on HCC-2998 colon. Also, the TGI in the experiment on T-47D breast was above 100 µM; with OVCAR-5 ovarian it was above 100 µM; with NCI-H460 lung, above 100 µM; in the experiment with SF-295 CNS it was above 100 µM; in the experiment with HL-60(TB) leukemia, 6.7 µM; in the experiment on MDA-MB-231 breast, above 100 µM. For the same compound, the TGI in the experiment with HCT-116 colon, in the experiment with OVCAR-4 ovarian, with OVCAR-8 ovarian and with HCC-2998 colon was above 100 µM each time.

For the compound `O=C(N/N=C/c1cccc(O)c1O)c1ccccc1`, the GI50 with T-47D breast was 2.65 µM; with OVCAR-5 ovarian it was 3.71 µM; in the experiment with NCI-H460 lung, 0.878 µM; in the experiment with SF-295 CNS, 2.28 µM; in the experiment on HL-60(TB) leukemia it was 0.301 µM; in the experiment on MDA-MB-231 breast, 0.495 µM. For the same compound, the GI50 in the experiment with HCT-116 colon was 0.388 µM; in the experiment with OVCAR-4 ovarian it was 0.312 µM; with OVCAR-8 ovarian, 0.587 µM; in the experiment on HCC-2998 colon, 3.2 µM. Also, the TGI was above 100 µM in the experiment with T-47D breast; above 100 µM with OVCAR-5 ovarian; above 100 µM in the experiment with NCI-H460 lung; above 100 µM with SF-295 CNS; 1.94 µM in the experiment with HL-60(TB) leukemia; above 100 µM in the experiment with MDA-MB-231 breast. In addition, the TGI with HCT-116 colon is above 100 µM; in the experiment on OVCAR-4 ovarian it was above 29.5 µM; in the experiment on OVCAR-8 ovarian, above 100 µM; with HCC-2998 colon, above 100 µM.
